The experiment addresses T1, Ubiquitin carboxyl-terminal hydrolase 30 (Homo sapiens, UniProt Q70CQ3).
T1 sequence (Q70CQ3 whole entry): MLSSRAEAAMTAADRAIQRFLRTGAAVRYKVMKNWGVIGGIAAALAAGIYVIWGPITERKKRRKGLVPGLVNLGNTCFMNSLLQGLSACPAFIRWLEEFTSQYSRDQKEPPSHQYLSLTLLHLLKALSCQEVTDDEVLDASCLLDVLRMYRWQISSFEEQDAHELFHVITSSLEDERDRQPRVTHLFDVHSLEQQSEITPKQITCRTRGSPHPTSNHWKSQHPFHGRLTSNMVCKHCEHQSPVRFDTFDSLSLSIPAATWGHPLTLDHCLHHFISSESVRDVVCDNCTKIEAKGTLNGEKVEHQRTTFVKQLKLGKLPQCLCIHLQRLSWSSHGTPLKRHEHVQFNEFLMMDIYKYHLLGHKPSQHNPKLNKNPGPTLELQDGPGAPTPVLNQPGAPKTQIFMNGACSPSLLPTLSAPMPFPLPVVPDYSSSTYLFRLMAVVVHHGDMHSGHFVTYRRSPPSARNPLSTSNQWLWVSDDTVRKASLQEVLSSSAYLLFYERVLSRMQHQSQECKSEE
Briefly: Biochemical Fluorescence Intensity Kinetic Assay/Biochemical Fluorescence Intensity Assay. On the procedure: Buffer was optimised for optimal temperature, pH, reducing agent, salts, time of incubation, and detergent. […] Reactions were incubated at room temperature and read every 2 min for 120 min. Readings were performed on a Pherastar Plus (BMG Labtech). […] A typical 8-point dilution series would be 100, 30, 10, 3, 1, 0.3, 0.1, 0.03 μM final. […] Either 1 μl of 50% DMSO or diluted compound was added to the plate. USP30 was diluted in reaction buffer (40 mM Tris, pH 7.5, 0.005% Tween 20, 0.5 mg/ml BSA, 5 mM beta-mercaptoethanol) to the equivalent of 0.001 μl/well and 10 μl of diluted USP30 was added to the compound. Enzyme and compound were incubated for 30 min at room temp. […] Reactions were read immediately after addition of substrate and following a 2 h incubation at room temperature.

The structures appear in SMILES notation.

The values that follow come from BindingDB's records for patent US10689345 (Mission Therapeutics Limited, 2020).

For orientation: IC50 means the concentration at which inhibition is half-maximal. In the case of `CO[C@@H]1CN(C#N)C[C@H]1N(C)C(=O)c1ccc(-c2cnn(C)c2)cc1` [US10689345, Example 178], the IC50 entry was “in the range around 550 nM”.
